The values that follow come from patent publication US20240182444A1, “ANTI-VIRAL COMPOUNDS” (Aligos Therapeutics, Inc., priority 2022, published 2024).

Like-named read-outs stand apart in the source and are kept apart here. A value given as a limit tells only on which side of the number the result lay.

For series [1], the system named is human beta-coronavirus OC43. The series can be described thus: OC43 coronavirus antiviral assay in HeLa cells. It is filed as cell-based. To be noted: Betacoronavirus 1, 144 h, OC43, 6 days at 33° C., cell-titer-glo. As for the experimental part:
(§1) The human beta-coronavirus OC43 was purchased from ATCC (Manassas, VA) and propagated using HCT-8 human colorectal epithelial cells (ATCC). HeLa human cervical epithelial cells (ATCC) were used as susceptible host cell lines and were cultured using EMEM media, supplemented with 10% fetal bovine serum (FBS), 1% (v/v) penicillin/streptomycin (P/S), 1% (v/v) HEPES and 1% (v/v) cellgro Glutagro™ supplement (all Corning, Manassas, VA) at 37° C. For the OC43 antiviral assay, 1.5×10^4 HeLa cells per well were plated in 100 μL complete media in white 96-well plates with clear bottoms at 37° C. for up to 24 h to facilitate attachment and allow cells to recover from seeding stresses. Next day, the cell culture medium was removed. Serially diluted compounds in 100 μL assay media (EMEM, 2% FBS, 1% P/S, 1% cellgro Glutagro™ supplement, 1% HEPES) were added to the cells and incubated for 4 h at 37° C. in a humidified 5% CO2 incubator. 100 μL of OC43 virus stock was diluted to a concentration known to produce optimal cytopathic effect, inducing 80-90% reduction in cell viability. 96-well plates were incubated for 6 days at 33° C.; each plate contains uninfected control wells as well as virus-infected wells that were not treated with compound. Cytotoxicity plates without the addition of OC43 virus were carried out in parallel. At the end of the incubation period, 100 μL cell culture supernatant was replaced with 100 μL cell-titer-glo reagent (Promega, Madison, WI) and incubated for at least 10 min at rt prior to measuring luminescence. Luminescence was measured on a Perkin Elmer (Waltham, MA) Envision plate reader. Antiviral % inhibition was calculated as follows: [(Compound treated cells infected sample)−(no compound infected control)]/[(Uninfected control)−(no compound infected control)]*100; Using GraphPad (San Diego, CA) prism software version 8.3.1, the antiviral dose-response plot was generated as a sigmoidal fit, log(inhibitor) vs response-variable slope (four parameters) model and the EC50 was calculated which is the predicted compound concentration corresponding to a 50% inhibition of the viral cytopathic effect.
(§2) Table 2 indicates related EC50 and CC50 values for the tested compounds ‘A’ indicates an EC50<100 nM, ‘B’ indicates an EC50 of ≥100 nM and <1000 nM, ‘C’ indicates an EC50≥1000 nM and <10000 nM and ‘D’ indicates an EC50≥10000 nM and <100000 nM. For CC50, the values are reported in micromolar (M), ‘A’ indicates a CC50≥10000 nM and ‘B’ indicates a CC50≥1 μM and <10 μM.

Series [2] concerns the target T1, SARS-Cov-2 3CLpro (Severe acute respiratory syndrome coronavirus 2, UniProt P0DTD1).
T1 construct: 3CLpro was added using a Multidrop Combi
Briefly: SARS-Cov-2 3CLpro protease assay (SAMDI-MS). It is filed as biochemical.

Series [3] in a line: in vitro. To be noted: human.
The test system of series [4] is SARS-CoV-2 B.1.1.7 lineage. The series can be described thus: microbe, parasite or virus in culture. It is filed as cell-based. To be noted: Severe acute respiratory syndrome coronavirus 2, 96 h; read-out: A549-dual_ACE2_TMPRSS2 (EC50).
A short description of series [5]: Cytotoxicity in HeLa cells without OC43 virus. It counts as cell-based. To be noted: human, HeLa cells (uninfected), in parallel. The protocol: as §1, §2
The mark [6] stands for this setting: 30 mins preincubation, duplex peptide substrates, read-out: SARS-Cov-2 (3CLpro IC50).

For `CC(C)(C)[C@H](NC(=O)C(F)(F)F)C(=O)N1C[C@@H]2[C@H]3C[C@@H]([C@@H]2[C@H]1C(=O)NC(C#N)c1cncc(Cl)c1Cl)[C@H](F)C3` (stereo partly drawn) [Compound 10, (1S,2R,3S,6R,7S,9R)—N-[cyano(4,5-dichloropyridin-3-yl)methyl]-4-[(2S)-3,3-dimethyl-2-(2,2,2-trifluoroacetamido)butanoyl]-9-fluoro-4-azatricyclo[5.2.1.0^{2,6}]decane-3-carboxamide], the 50% effective concentration (EC50) (usually the midpoint of the concentration-response curve) in series [1] is 100 to 1000 nM; in series [4] it was at least 1000 nM. The IC50 in series [2] (setting [6]) was below 20 nM. For the same compound, the CC50 in series [3] is above 1000 nM. In series [5], the CC50 at 6 days was at least 10000 nM.
As for `CC(C)(C)[C@H](NC(=O)C(F)(F)F)C(=O)N1C[C@@H]2[C@@H]3CC([C@@H]2[C@H]1C(=O)NC(C#N)c1cnn(-c2ccccc2)c1)[C@H](F)C3` (stereo partly shown) [Compound 13], the IC50 in series [2] (setting [6]) fell in the range of 200 to 2000 nM.
The same measure, in the same setting: then `C#CC(NC(=O)[C@@H]1[C@@H]2[C@H](CN1C(=O)[C@@H](NC(=O)C(F)(F)F)C(C)(C)C)[C@H]1C[C@@H]2[C@H](F)C1)c1cncc2ccccc12` (stereo partly drawn) [Compound 32, (1S,3aR,4S,6R,7S,7aR)-2-((S)-3,3-dimethyl-2-(2,2,2-trifluoroacetamido)butanoyl)-6-fluoro-N-(1-(isoquinolin-4-yl)prop-2-yn-1-yl)octahydro-1H-4,7-methanoisoindole-1-carboxamide], with 20 to 200 nM.
Turning to `CC(C)(C)[C@H](NC(=O)C(F)(F)F)C(=O)N1C[C@H]2[C@@H]([C@H]1C(=O)NC(C#N)c1cccc3ccccc13)[C@H]1C=C[C@@H]2C1` (stereo partly shown) [Compound 16], the IC50 in series [2] (setting [6]) was in the range of 200 to 2000 nM. In series [3], this compound gave a CC50 above 1000 nM. The EC50 in series [4] was at least 1000 nM.
`COc1cccn2ncc(C(C#N)NC(=O)[C@@H]3[C@@H]4[C@H](CN3C(=O)[C@@H](NC(=O)C(F)(F)F)C(C)(C)C)[C@H]3C[C@@H]4[C@H](F)C3)c12` (stereo partly shown) [Compound 19]: the EC50 in series [1] was 100 to 1000 nM; in series [4] it was below 100 nM. In series [2] (setting [6]), the IC50 is below 20 nM. In series [3], the CC50 was above 1000 nM. The compound further yielded a CC50 at 6 days in series [5] of at least 10000 nM.
On the same counts, the results for `COc1cccc2cncc([C@H](C#N)NC(=O)[C@@H]3[C@@H]4[C@H](CN3C(=O)[C@@H](NC(=O)C(F)(F)F)C(C)(C)C)[C@H]3C[C@@H]4[C@H](F)C3)c12` [Compound 29] are 100 to 1000 nM, below 100 nM, 20 to 200 nM, above 1000 nM and at least 10000 nM.
On the same counts, the results for `N#CC(NC(=O)[C@@H]1[C@@H]2[C@H](CN1C(=O)c1cc3c(F)cc(F)cc3[nH]1)[C@@H]1C=C[C@H]2C1)c1cncc2ccccc12` (stereo partly drawn) [Compound 8, (1R,2S,3S,6R,7S)—N-[cyano(isoquinolin-4-yl)methyl]-4-(4,6-difluoro-1H-indole-2-carbonyl)-4-azatricyclo[5.2.1.0^{2,6}]dec-8-ene-3-carboxamide] are 100 to 1000 nM, 100 to 1000 nM, 20 to 200 nM, above 1000 nM and 1000 to 10000 nM.
For `COc1cccc2cncc(C(C#N)NC(=O)[C@@H]3[C@@H]4[C@H](CN3C(=O)[C@@H](NC(=O)C(F)(F)F)C(C)(C)C)[C@H]3C[C@@H]4[C@H](F)C3)c12` (stereo partly shown) [Compound 26] the same measures were below 100 nM, below 100 nM, below 20 nM, above 1000 nM and at least 10000 nM.
Turning to `Cn1cc(C(C#N)NC(=O)[C@@H]2[C@@H]3[C@H](CN2C(=O)[C@@H](NC(=O)C(F)(F)F)C(C)(C)C)[C@@H]2C=C[C@H]3C2)cn1` (stereo partly drawn) [Compound 6, (1R,2S,3S,6R,7S)—N-[cyano(1-methylpyrazol-4-yl)methyl]-4-[(2S)-3,3-dimethyl-2-(2,2,2-trifluoroacetamido)butanoyl]-4-azatricyclo[5.2.1.0^{2,6}]dec-8-ene-3-carboxamide], the values for the EC50 in series [1] and in series [4] were 1000 to 10000 nM and 100 to 1000 nM, respectively. The IC50 in series [2] (setting [6]) lay within 20 to 200 nM. In series [3], this compound returned a CC50 above 1000 nM. Moreover, the CC50 at 6 days in series [5] is at least 10000 nM.
For the compound `N#CC(NC(=O)C1[C@@H]2[C@H](CN1C(=O)c1cnn(-c3ccccc3C(F)(F)F)c1)[C@H]1C[C@@H]2[C@H](F)C1)c1cncc2ccccc12` (stereo partly drawn) [Compound 12, (1S,2R,3S,6R,7S,9R)—N-[cyano(isoquinolin-4-yl)methyl]-9-fluoro-4-{1-[2-(trifluoromethyl)phenyl]pyrazole-4-carbonyl}-4-azatricyclo[5.2.1.0^{2,6}]decane-3-carboxamide], in series [2] (setting [6]), the IC50 was 20 to 200 nM. Further, the CC50 in series [3] was above 1000 nM. Further, in series [4], the EC50 was at least 1000 nM.
Consider `CC(C)(C)[C@H](NC(=O)C(F)(F)F)C(=O)N1C[C@@H]2[C@@H]3CC([C@@H]2[C@H]1C(=O)NC(C#N)c1cncc(-c2ccccc2)c1)[C@H](F)C3` (stereo partly shown) [Compound 14], for which the IC50 in series [2] (setting [6]) is below 20 nM.
Take `CC(C)(C)[C@H](NC(=O)C(F)(F)F)C(=O)N1C[C@@H]2[C@H]3C[C@@H]([C@@H]2[C@H]1C(=O)NC(C#N)c1cnn2ccccc12)[C@H](F)C3` (stereo partly shown) [Compound 25]: the EC50 in series [1] and in series [4] was 100 to 1000 nM in each case. Also, in series [2] (setting [6]), the IC50 was below 20 nM. Also, the CC50 in series [3] was above 1000 nM. Moreover, the CC50 at 6 days in series [5] was at least 10000 nM.
Regarding `Cc1ncc2ccccc2c1C(C#N)NC(=O)[C@@H]1[C@@H]2[C@H](CN1C(=O)[C@@H](NC(=O)C(F)(F)F)C(C)(C)C)[C@@H]1C=C[C@H]2C1` (stereo partly shown) [Compound 21], the IC50 in series [2] (setting [6]) was in the range of 2000 to 20000 nM. The CC50 in series [3] is above 1000 nM. Further, the EC50 in series [4] was at least 1000 nM.
On to `CC(C)(C)[C@H](NC(=O)C(F)(F)F)C(=O)N1C[C@@H]2[C@@H]3C[C@H]([C@@H]2[C@H]1C(=O)NC(C#N)c1cnn(-c2ccccc2)c1)[C@H](F)C3` (stereo partly shown) [Compound 13], for which the CC50 in series [3] is above 1000 nM. For the same compound, the EC50 in series [4] is at least 1000 nM.
As to `CC(C)(C)[C@H](NC(=O)C(F)(F)F)C(=O)N1C[C@@H]2[C@@H]3C[C@H]([C@@H]2[C@H]1C(=O)NC(C#N)c1cncc(-c2ccccc2)c1)[C@H](F)C3` (stereo partly shown) [Compound 14], the EC50 in series [1] was 10000 to 100000 nM; in series [4] it was 100 to 1000 nM. The compound further gave a CC50 in series [3] above 1000 nM. This compound yielded a CC50 at 6 days in series [5] of at least 10000 nM.
For `CC(C)(C)[C@H](NC(=O)C(F)(F)F)C(=O)N1C[C@H]2[C@@H]([C@H]1C(=O)NC(C#N)c1cncc3ccccc13)C2(C)C` (stereo partly drawn) [Compound 11, (1R,2S,5S)—N-[cyano(isoquinolin-4-yl)methyl]-3-[(2S)-3,3-dimethyl-2-(2,2,2-trifluoroacetamido)butanoyl]-6,6-dimethyl-3-azabicyclo[3.1.0]hexane-2-carboxamide] the same measures were below 100 nM, below 100 nM, above 1000 nM and at least 10000 nM.
For the compound `CC(C)(C)[C@H](NC(=O)C(F)(F)F)C(=O)N1C[C@H]2[C@@H]([C@H]1C(=O)NC(C#N)c1nc[nH]n1)[C@H]1C=C[C@@H]2C1` (stereo partly drawn) [Compound 4, (1R,2S,3S,6R,7S)—N-[cyano(1H-1,2,4-triazol-3-yl)methyl]-4-[(2S)-3,3-dimethyl-2-(2,2,2-trifluoroacetamido)butanoyl]-4-azatricyclo[5.2.1.0^{2,6}]dec-8-ene-3-carboxamide], the EC50 in series [1] lay within 1000 to 10000 nM. Moreover, the IC50 in series [2] (setting [6]) lay within 200 to 2000 nM. Moreover, the CC50 at 6 days in series [5] is at least 10000 nM.
On to `CC(C)(C)[C@H](NC(=O)C(F)(F)F)C(=O)N1C[C@@H]2[C@H]3C[C@@H]([C@@H]2[C@H]1C(=O)NC(C#N)c1cncn1-c1ccccc1)[C@H](F)C3` (stereo partly shown) [Compound 23], for which the IC50 in series [2] (setting [6]) is 20 to 200 nM; in series [2] (bound given in table footnote, read-out: SARS-Cov-2 activity (footnote of Table 1)) it was above 500 nM. The CC50 in series [3] was above 1000 nM. Moreover, the EC50 in series [4] was at least 1000 nM.
